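Dose response: 5 concentrations. Exposure: 48 h. Format: 96-well plates. Endpoint: linear interpolation; highest concentration if not reached. Here, GI50 denotes the concentration required for 50% inhibition of growth. At the TGI there is no net growth.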
How the values were obtained:
Test in all cases: NCI tumour cell line growth inhibition, 48 h
M14 melanoma = system: M14 melanoma
NCI-H23 lung = system: NCI-H23 lung
U251 CNS = system: U251 CNS
EKVX NSCLC = system: EKVX NSCLC
MCF7 breast = system: MCF7 breast
SF-539 CNS = system: SF-539 CNS
PC-3 prostate = system: PC-3 prostate
DU-145 prostate = system: DU-145 prostate
MALME-3M melanoma = system: MALME-3M melanoma
CAKI-1 renal = system: CAKI-1 renal
SW-620 colon = system: SW-620 colon
HS 578T breast = system: HS 578T breast
MDA-MB-435 = system: MDA-MB-435
IGROV1 ovarian = system: IGROV1 ovarian
SK-OV-3 ovarian = system: SK-OV-3 ovarian
SN12C renal = system: SN12C renal
SK-MEL-2 melanoma = system: SK-MEL-2 melanoma
HOP-62 NSCLC = system: HOP-62 NSCLC
K-562 leukemia = system: K-562 leukemia
HOP-92 NSCLC = system: HOP-92 NSCLC
NCI-H460 lung = system: NCI-H460 lung
RPMI-8226 leukemia = system: RPMI-8226 leukemia
OVCAR-5 ovarian = system: OVCAR-5 ovarian
TK-10 renal = system: TK-10 renal
MOLT-4 leukemia = system: MOLT-4 leukemia
OVCAR-3 ovarian = system: OVCAR-3 ovarian
RXF 393 renal = system: RXF 393 renal
CCRF-CEM leukemia = system: CCRF-CEM leukemia
MDA-MB-231 breast = system: MDA-MB-231 breast

Q: Which GI50 (M14 melanoma) does the source give for `CC(=O)c1cc(O)c2ccccc2c1O` here?
A: 19.7 µM

Q: What about the TGI (M14 melanoma) of the same compound?
A: 36.7 µM

Q: And the GI50 (NCI-H23 lung)?
A: 20.2 µM

Q: And the TGI (NCI-H23 lung)?
A: 53.7 µM

Q: And the GI50 (U251 CNS)?
A: 18.6 µM

Q: And the TGI (U251 CNS)?
A: 33.6 µM

Q: What about the GI50 (EKVX NSCLC) of the same compound?
A: 22.1 µM

Q: And the TGI (EKVX NSCLC)?
A: 81.2 µM

Q: What about the GI50 (MCF7 breast) of the same compound?
A: 14.8 µM

Q: And the TGI (MCF7 breast)?
A: 36.9 µM

Q: And the GI50 (SF-539 CNS)?
A: 22.5 µM

Q: And the TGI (SF-539 CNS)?
A: 40.6 µM

Q: And the GI50 (PC-3 prostate)?
A: 20.3 µM

Q: What about the TGI (PC-3 prostate) of the same compound?
A: 50.8 µM

Q: And the GI50 (DU-145 prostate)?
A: 18.9 µM

Q: And the TGI (DU-145 prostate)?
A: 33 µM

Q: And the GI50 (MALME-3M melanoma)?
A: 18.2 µM

Q: What about the TGI (MALME-3M melanoma) of the same compound?
A: 34.2 µM

Q: And the GI50 (CAKI-1 renal)?
A: 15.5 µM

Q: And the TGI (CAKI-1 renal)?
A: 30.2 µM

Q: And the GI50 (SW-620 colon)?
A: 18.4 µM

Q: And the TGI (SW-620 colon)?
A: 49.2 µM

Q: And the GI50 (HS 578T breast)?
A: 39.7 µM

Q: What about the TGI (HS 578T breast) of the same compound?
A: > 100 µM

Q: What about the GI50 (MDA-MB-435) of the same compound?
A: 14.5 µM

Q: What about the TGI (MDA-MB-435) of the same compound?
A: 30.7 µM

Q: What about the GI50 (IGROV1 ovarian) of the same compound?
A: 13 µM

Q: And the TGI (IGROV1 ovarian)?
A: 29.3 µM

Q: And the GI50 (SK-OV-3 ovarian)?
A: > 100 µM

Q: And the TGI (SK-OV-3 ovarian)?
A: > 100 µM

Q: What about the GI50 (SN12C renal) of the same compound?
A: 17.5 µM

Q: What about the TGI (SN12C renal) of the same compound?
A: 36.3 µM

Q: What about the GI50 (SK-MEL-2 melanoma) of the same compound?
A: 20.4 µM

Q: What about the TGI (SK-MEL-2 melanoma) of the same compound?
A: 38.7 µM

Q: And the GI50 (HOP-62 NSCLC)?
A: 17.5 µM

Q: What about the TGI (HOP-62 NSCLC) of the same compound?
A: 41.4 µM

Q: What about the GI50 (K-562 leukemia) of the same compound?
A: 23.1 µM

Q: And the TGI (K-562 leukemia)?
A: 67.6 µM

Q: What about the GI50 (HOP-92 NSCLC) of the same compound?
A: 16.6 µM

Q: And the TGI (HOP-92 NSCLC)?
A: 31 µM

Q: What about the GI50 (NCI-H460 lung) of the same compound?
A: 27 µM

Q: What about the TGI (NCI-H460 lung) of the same compound?
A: 76.8 µM

Q: What about the GI50 (RPMI-8226 leukemia) of the same compound?
A: 22.7 µM

Q: What about the TGI (RPMI-8226 leukemia) of the same compound?
A: 60.5 µM

Q: And the GI50 (OVCAR-5 ovarian)?
A: 23.7 µM

Q: And the TGI (OVCAR-5 ovarian)?
A: 43 µM

Q: And the GI50 (TK-10 renal)?
A: 17 µM

Q: And the TGI (TK-10 renal)?
A: 33.1 µM

Q: And the GI50 (MOLT-4 leukemia)?
A: 33.6 µM

Q: And the TGI (MOLT-4 leukemia)?
A: 99.4 µM

Q: And the GI50 (OVCAR-3 ovarian)?
A: 17.7 µM

Q: And the TGI (OVCAR-3 ovarian)?
A: 37.5 µM

Q: And the GI50 (RXF 393 renal)?
A: 19.5 µM

Q: What about the TGI (RXF 393 renal) of the same compound?
A: 33.8 µM

Q: What about the GI50 (CCRF-CEM leukemia) of the same compound?
A: 19.2 µM

Q: What about the TGI (CCRF-CEM leukemia) of the same compound?
A: > 100 µM

Q: And the GI50 (MDA-MB-231 breast)?
A: 15.2 µM

Q: And the TGI (MDA-MB-231 breast)?
A: 36.2 µM

From PubChem BioAssay (NCI)
